Test results as given in EPA's ToxRefDB 2.

Key:
[1] = tested on: rabbit; conditions: Sub-acute repeat dose toxicity, new zealand white, Oral, Gavage/Intubation, dose end: 5 day, group: systemic
[2] = tested on: rat; conditions: Sub-acute repeat dose toxicity, sprague dawley, Oral, Gavage/Intubation, dose end: 7 day, group: systemic
[3] = tested on: dog; conditions: Sub-acute repeat dose toxicity; beagle; Oral; Gavage/Intubation; dose end: 5 day; group: systemic; systemic / in life observation / clinical signs / abnormal feces
[4] = tested on: rat; conditions: Sub-acute repeat dose toxicity; sprague dawley; Oral; Gavage/Intubation; dose end: 14 day; group: systemic; systemic / clinical chemistry / 5' nucleotidase / 5' nucleotidase + systemic / clinical chemistry / alanine aminotransferase (alt/sgpt) / …
[5] = tested on: rat; conditions: Sub-acute repeat dose toxicity; sprague dawley; Oral; Gavage/Intubation; dose end: 4 day; group: systemic; systemic / in life observation / clinical signs / respiration (rales) + systemic / in life observation / mortality / mortality + systemic / …
[6] = tested on: dog; conditions: Sub-acute repeat dose toxicity, beagle, Oral, Gavage/Intubation, dose end: 5 day, group: systemic
[7] = tested on: rabbit; conditions: Sub-acute repeat dose toxicity; new zealand white; Oral; Gavage/Intubation; dose end: 4 day; group: systemic; systemic / in life observation / body weight / body weight + systemic / in life observation / food consumption / food consumption
[8] = tested on: rat; conditions: Subchronic oral toxicity in rodents, sprague dawley, Gavage/Intubation, dose end: 93 day, group: systemic
[9] = tested on: dog; conditions: Subchronic oral toxicity in nonrodent, beagle, Gavage/Intubation, dose end: 93 day, group: systemic
[10] = tested on: dog; conditions: Sub-acute repeat dose toxicity; beagle; Oral; Gavage/Intubation; dose end: 14 day; group: systemic; systemic / in life observation / clinical signs / emesis + systemic / in life observation / clinical signs / tremors + systemic / in life …
[11] = systemic / in life observation / body weight / body weight + systemic / in life observation / clinical signs / erythema
[12] = systemic / in life observation / clinical signs / erythema
[13] = systemic / clinical chemistry / albumin-globulin ratio / albumin-globulin ratio + systemic / clinical chemistry / cholesterol / cholesterol…
[14] = systemic / in life observation / clinical signs / salivation + systemic / pathology microscopic / liver / vacuolization
[15] = systemic / in life observation / clinical signs / abnormal feces + systemic / in life observation / clinical signs / arrhythmia + systemic…
[16] = systemic / in life observation / clinical signs / salivation
[17] = systemic / in life observation / clinical signs / abnormal respiratory sounds + systemic / in life observation / clinical signs / salivation
[18] = systemic / organ weight / adrenal gland / absolute + systemic / in life observation / food consumption / food consumption + systemic / …
[19] = systemic / in life observation / clinical signs / abnormal feces + systemic / in life observation / clinical signs / salivation
[20] = systemic / in life observation / clinical signs / emesis + systemic / organ weight / adrenal gland / absolute + systemic / clinical …

COc1ccc(C(C)(C)C)cc1CN[C@H]1C2CCN(CC2)[C@H]1C(c1ccccc1)c1ccccc1
LOAEL [1, 11]: > 150 mg/kg/day
NOAEL [1, 11]: ≥ 150 mg/kg/day
LEL [1, 12]: 5 mg/kg/day
NEL [1, 12]: < 5 mg/kg/day
LOAEL [2, 13]: > 100 mg/kg/day
NOAEL [2, 13]: ≥ 100 mg/kg/day
LEL [2, 14]: 30 mg/kg/day
NEL [2, 14]: < 30 mg/kg/day
LEL [3]: 5 mg/kg/day
LOAEL [3]: > 20 mg/kg/day
NEL [3]: < 5 mg/kg/day
NOAEL [3]: ≥ 20 mg/kg/day
LOAEL [4]: > 500 mg/kg/day
NEL [4]: < 150 mg/kg/day
NOAEL [4]: ≥ 500 mg/kg/day
LEL [5]: 300 mg/kg/day
LOAEL [5]: > 300 mg/kg/day
NEL [5]: < 300 mg/kg/day
NOAEL [5]: ≥ 300 mg/kg/day
LOAEL [6, 15]: > 20 mg/kg/day
NOAEL [6, 15]: ≥ 20 mg/kg/day
LEL [6, 16]: 5 mg/kg/day
NEL [6, 16]: < 5 mg/kg/day
LOAEL [7]: > 150 mg/kg/day
NEL [7]: 30 mg/kg/day
NOAEL [7]: ≥ 150 mg/kg/day
LEL [8, 17]: 5 mg/kg/day
NEL [8, 17]: < 5 mg/kg/day
LOAEL [8, 18]: > 150 mg/kg/day
NOAEL [8, 18]: ≥ 150 mg/kg/day
LEL [9, 19]: 1 mg/kg/day
NEL [9, 19]: < 1 mg/kg/day
LOAEL [9, 20]: > 20 mg/kg/day
NOAEL [9, 20]: ≥ 20 mg/kg/day
LEL [10]: 20 mg/kg/day
LOAEL [10]: > 20 mg/kg/day
NEL [10]: < 20 mg/kg/day
NOAEL [10]: ≥ 20 mg/kg/day
